Assay results from paper PMC9038204, “SNX27–Retromer directly binds ESCPE-1 to transfer cargo proteins during endosomal recycling” (PLoS Biology, 2022).
Where two headings read alike, the source gives them in different places. Where no end group is shown, it is not given here.

Columns and labels:
SNX27 = assay: GFP trap co-immunoprecipitation of GFP-SNX1/SNX2 constructs from HEK-293T, quantitative western blot: SNX27; type: binding; settings: for SNX27 co-immunoprecipitated (quantitative western blot), mean: Fig. 3F, GFP-tagged SNX1 WT or mutant as bait, HEK-293T, WT set to 100, mean of n = 4; for reduced binding to SNX27: full-length GFP-SNX1 point mutants in HEK293T, versus SNX1 WT
Protocol: (§1) HeLa and HEK-293T cell lines were sourced from ATCC. Authentication was from the ATCC. Cells were grown in DMEM (Sigma-Aldrich) supplemented with 10% (v/v) FCS (Sigma-Aldrich) and penicillin/streptomycin (Gibco, USA) and grown under standard conditions. FuGENE HD (Promega, USA) was used for transient transfection of DNA according to the manufacturer’s instructions. Cycloheximide was used to prevent up-regulation of protein synthesis. In this case, cycloheximide (C7698; Sigma-Aldrich) at 10 μg/ml was added to the cells 48 hours after FuGENE transfection for the indicated time points. For the generation of CRISPR-Cas9 SNX27 knockout HeLa cells, HeLa cells were transfected with pX330 plasmid coding for the gRNA against the gene of interest together with a puromycin resistance–expressing plasmid. Cells were then subjected to puromycin selection for 24 hours. The pooled population of cells was subjected to lysis and western blotting to confirm the knockout. The VPS35 knockout clonal cell line used in this study was characterized previously. For GFP-based immunoprecipitations, HEK293T cells were transfected with GFP constructs using polyethylenimine (Sigma-Aldrich) and expression was allowed for 48 hours.
(§2) For western blotting, cells were lysed in PBS with 1% (v/v) Triton X-100 and protease inhibitor cocktail. The protein concentration was determined with a BCA assay kit (Thermo Fisher Scientific, USA), and equal amounts were resolved on NuPAGE 4% to 12% precast gels (Invitrogen, USA). Blotting was performed onto polyvinylidene fluoride membranes (Immobilon-FL; EMD Millipore, USA) followed by detection using the Odyssey infrared scanning system (LI-COR Biosciences, USA). For GFP-based immunoprecipitations, HEK-293T cells were lysed 48 hours after transfection in immunoprecipitation buffer (50 mM Tris-HCl, 0.5% (v/v) NP-40, and Roche protease inhibitor cocktail) and subjected to GFP trap (ChromoTek, Germany). Immunoblotting was performed using standard procedures. Detection was performed on an Odyssey infrared scanning system (LI-COR Biosciences) using fluorescently labeled secondary antibodies. In using the Odyssey, we routinely performed western blot analysis where a single blot is simultaneously probed with antibodies against 2 proteins of interest (distinct antibody species) followed by visualization with the corresponding secondary antibodies conjugated to distinct spectral dyes.

SNX6 = assay: GFP trap co-immunoprecipitation from HEK-293T, quantitative western blot: SNX6; type: binding; settings: Fig. 3F, GFP-tagged SNX1 WT or mutant as bait, WT set to 100, mean of n = 4
Protocol: as §1, §2

[1] = molecular target: T1, full-length mouse SNX27 (mSNX27FL) (Mus musculus, UniProt Q3UHD6); assay: ITC, hSNX1/2 peptides against mSNX27FL; type: binding; settings: 25°C, 50 mM HEPES pH 7.5, 200 mM NaCl, 5% glycerol, 1 mM β-ME, 800 μM peptide titrated into 20 μM mSNX27FL, single-site fit, mean of at least 2 experiments
T1 construct: DNA encoding full-length mouse SNX27 (mSNX27FL hereafter) was inserted into the pMCSG7 vector; made in house; host or cells: Escherichia coli BL21 CodonPlus (DE3)
Protocol: Human SNX1 and SNX2 peptide sequences were synthesized by Genscript (USA). To obtain the peptide stock solutions at neutral pH, 100 mM Tris-HCl, pH 10.6 was used to dissolve the peptide to a final concentration of 8 mM. The peptides were SNX1_35-51 […], SNX135-51(D45K) […], SNX1_75-92 […], SNX2_16-33 […], SNX2_16-33(DLF/SSS) […], and SNX2_62-82 […].
All microcalorimetry experiments were conducted at 25°C using a PEAQ ITC (Malvern, UK) in 50 mM HEPES (pH 7.5), 200 mM NaCl, 5% glycerol, and 1 mM β-ME (ITC buffer). All proteins were purified by SEC using the same buffer prior to ITC experiments to avoid buffer mismatches. To measure binding of SNX27 to SNX1 proteins, 800 μM of hSNX27FERM was titrated into 20 μM of GST-mSNX1_1-139 or His-SNX1FL. For the binding of SNX1 and SNX2 peptides to SNX27, peptides were diluted 10-fold to 800 μM in ITC buffer peptides and titrated into 20 μM SNX27FL proteins containing the same 1:10 ratio of peptide buffer (100 mM Tris-HCl, pH 10.6). The competitive ITC experiments were carried out by titrating 800 μM SNX1_75-92 peptides into 20 μM proteins with 2-fold molar excess SNX2_16-33 peptide preincubated with SNX27 on ice for an hour. For ITC experiment using SNX1_75-92 against hSNX27 wild-type and single-site mutants, 600 μM SNX1_75-92 peptide was titrated into 20 μM hSNX27 proteins.
The ITC experiments were conducted with 1 injection of 0.4 μL followed by a series of 12 injections of 3.2 μL each with 180-second intervals and a stirring speed of 850 rpm. The heat exchange of interactions was obtained through integrating the observed peaks and background correction by subtracting the heats of dilution. Data were analyzed with Malvern software package by fitting and normalized data to a single-site binding model, yielding the thermodynamic parameters Kd, ΔH, ΔG, and −TΔS for all binding experiments. The stoichiometry was refined initially, and if the value was close to 1, then N was set to exactly 1.0 for calculation. All experiments were performed at least twice to guarantee reproducibility of the data.

[2] = system: HeLa cells, EEA1 endosomes; assay: Colocalization of GFP-tagged SNX27 or SNX1 constructs with EEA1 (Pearson); type: cell-based
Protocol: (§3) Cells were fixed in 4% (v/v) PFA for 20 minutes and washed 3 times in PBS and permeabilized with 0.1% (v/v) Triton X-100. For LAMP1 staining, cells were instead permeabilized by submersion in liquid nitrogen for 20 seconds. Fixed cells were blocked in 1% (w/v) BSA and incubated in primary antibody and respective secondary antibody (Alexa Fluor; Thermo Fisher Scientific) in 1% (w/v) BSA.
(§4) Microscopy images were collected with a confocal laser-scanning microscope (SP5 AOBS; Leica Microsystems, Germany) attached to an inverted epifluorescence microscope (DMI6000; […]). A 63× 1.4 NA oil immersion objective (Plan Apochromat BL; Leica Biosystems, Germany) and the standard SP5 system acquisition software and detector were used. Images were captured at room temperature as z stacks with photomultiplier tube detectors with a photocathode made of gallium-arsenide-phosphide (Leica Microsystems) for collecting light emission. Images were captured using Application Suite AF software (version 2.7.3.9723; Leica Microsystems) and then analyzed with the Volocity 6.3 software (PerkinElmer, USA).

[3] = system: HeLa cells, SNX6 endosomes; assay: Colocalization of GFP-tagged SNX27 or SNX1 constructs with SNX6 (Pearson); type: cell-based
Protocol: as §3, §4

[4] = system: HeLa cells, endogenous GLUT1; assay: Cycloheximide degradation assay, GLUT1 level; type: cell-based; settings: for GLUT1 level, 0h: 0h (set to 100)
Protocol: as §1, §2

[5] = system: HeLa cells, endogenous ITGA5; assay: Cycloheximide degradation assay, ITGA5 level; type: cell-based; settings: for ITGa5 level, 0h: 0h (set to 100)
Protocol: as §1, §2

[6] = 8h relative to 0h = 100, replicate n1, Fig. 6C
[7] = 8h relative to 0h = 100, replicate n2, Fig. 6C
[8] = 8h relative to 0h = 100, replicate n3, Fig. 6C

D45K
SNX27 co-immunoprecipitated (quantitative western blot), mean (SNX27; GFP trap): 45.07 | SNX6 co-immunoprecipitated (quantitative western blot), mean (SNX6): 102

D87K
SNX27 co-immunoprecipitated (quantitative western blot), mean (SNX27; GFP trap): 34.69 | SNX6 co-immunoprecipitated (quantitative western blot), mean (SNX6): 115.6

E42K
SNX27 co-immunoprecipitated (quantitative western blot), mean (SNX27; GFP trap): 52.35 | SNX6 co-immunoprecipitated (quantitative western blot), mean (SNX6): 105.5

E44K
SNX27 co-immunoprecipitated (quantitative western blot), mean (SNX27; GFP trap): 63.19 | SNX6 co-immunoprecipitated (quantitative western blot), mean (SNX6): 113.2

E84K
SNX27 co-immunoprecipitated (quantitative western blot), mean (SNX27; GFP trap): 45.59 | SNX6 co-immunoprecipitated (quantitative western blot), mean (SNX6): 104.1

EAGDSDTEGEDIFTGAA [SNX1_35-51]
Kd ([1]; read-out: Kd): 33.4 ± 1.89 µM

EAGDSDTEGEKIFTGAA [SNX1_35-51(D45K), SNX1 35–51 peptide with charge swap mutation D45K]
Kd ([1]; listed as SNX1(D45K)): no detectable binding | Kd ([1]; listed as hSNX135-51 (D45K)): No binding detected

F47K
SNX27 co-immunoprecipitated (quantitative western blot), mean (SNX27; GFP trap): 42.86 | SNX6 co-immunoprecipitated (quantitative western blot), mean (SNX6): 98.51

F89D
SNX27 co-immunoprecipitated (quantitative western blot), mean (SNX27; GFP trap): 41.68 | SNX6 co-immunoprecipitated (quantitative western blot), mean (SNX6): 109.4

GFP-SNX1(D45K): full-length GFP-SNX1 point mutant in the first aDLF motif
reduced binding to SNX27 (SNX27; Fig 3F): around 50%

GFP-SNX1(D45K,D87K): double mutant targeting key residues in both aDLF motifs of SNX1
SNX27 binding, in words (SNX27; Fig 3F, S2B Fig, double aDLF mutants in HEK293T, GFP trap): near undetectable levels

GFP-SNX1(E42K): full-length GFP-SNX1 point mutant in the first aDLF motif
reduced binding to SNX27 (SNX27; Fig 3F): around 50%

GFP-SNX1(E44K): full-length GFP-SNX1 point mutant in the first aDLF motif
reduced binding to SNX27 (SNX27; Fig 3F): around 50%

GFP-SNX1(F47K): full-length GFP-SNX1 point mutant in the first aDLF motif
reduced binding to SNX27 (SNX27; Fig 3F): around 50%

GFP-SNX1(I46K): full-length GFP-SNX1 point mutant in the first aDLF motif
reduced binding to SNX27 (SNX27; Fig 3F): around 50%

GFP-SNX1: GFP-tagged full-length SNX1
colocalization with EEA1 (SNX1 vs EEA1), mean ([2]; mean of n = 3): 0.4267 | colocalization with EEA1 (SNX1 vs EEA1) ([2]; replicate n1): 0.53 | colocalization with EEA1 (SNX1 vs EEA1) ([2]; replicate n2): 0.34 | colocalization with EEA1 (SNX1 vs EEA1) ([2]; replicate n3): 0.41 | colocalization with SNX6 (SNX1 vs SNX6), mean ([3]; mean of n = 3): 0.6597 | colocalization with SNX6 (SNX1 vs SNX6) ([3]; replicate n1): 0.81 | colocalization with SNX6 (SNX1 vs SNX6) ([3]; replicate n2): 0.506 | colocalization with SNX6 (SNX1 vs SNX6) ([3]; replicate n3): 0.663

I46K
SNX27 co-immunoprecipitated (quantitative western blot), mean (SNX27; GFP trap): 47.55 | SNX6 co-immunoprecipitated (quantitative western blot), mean (SNX6): 90.56

KO +GFP-SNX1
GLUT1 level, 0h ([4]; replicate n1, Fig. 6C): 100 | GLUT1 level, 0h ([4]; replicate n2, Fig. 6C): 100 | GLUT1 level, 0h ([4]; replicate n3, Fig. 6C): 100 | GLUT1 level, 0h, Mean 1 ([4]; 0h, mean of n = 3, Fig. 6C): 100 | GLUT1 level, 8h, Mean 2 ([4]; 8h relative to 0h = 100, mean of n = 3, Fig. 6C): 106.2 | GLUT1 level, 8h [4, 6]: 90.4645 | GLUT1 level, 8h [4, 7]: 112.847 | GLUT1 level, 8h [4, 8]: 115.364 | ITGa5 level, 0h ([5]; replicate n1, Fig. 6C): 100 | ITGa5 level, 0h ([5]; replicate n2, Fig. 6C): 100 | ITGa5 level, 0h ([5]; replicate n3, Fig. 6C): 100 | ITGa5 level, 0h, Mean 1 ([5]; 0h, mean of n = 3, right-hand (unlabelled) statistics block, Fig. 6C): 100 | ITGa5 level, 8h [5, 6]: 98.9429 | ITGa5 level, 8h [5, 7]: 105.348 | ITGa5 level, 8h [5, 8]: 145.221

TDFEDLEDGESSSTSTVS [SNX2_16-33(DLF/SSS), SNX2 16–33 peptide with triple mutation DLF-SSS]
Kd ([1]; listed as SNX2(DLF-SSS)): no detectable binding | Kd ([1]; listed as hSNX216-33 (DLF-SSS)): No binding detected

TEVVLDDDREDLFAEATEEVS [SNX2_62-82]
Kd ([1]; read-out: Kd): 22.6 ± 1.89 µM
